This note sets out measurements from patent publication US11236047B2 (ASTEX THERAPEUTICS LIMITED, priority 2017, dated 2022).

Experiment [1] concerns SN40R2 cells. Nature of the experiment: Protocol B: SN40R2 CellTiter-Glo luminescent cell viability assay. The settings on record: for inhibition at 10 µM: read-out: SN40R2 % inhibition at 10, Protocol B, SN40R2, at 10 μM.
Procedure: Protocol B: SJSA-1 and SN40R2 Assays
The CellTiter-Glo® Luminescent Cell Viability Assay is a homogeneous method to determine the number of viable cells in culture based on quantitation of the ATP present, which signals the presence of metabolically active cells. […] 100 μl of CTG reagent (Promega #G7573) was added to all wells and luminescence was measured on the topcount. The EC50 values were determined from a sigmoidal 4 parameter curve fit using XLfit in conjunction with Activity Base (IDBS; Guildford, Surrey, UK).
Experiment [2] relates to SJSA-1 cells. Nature of the experiment: Protocol B: SJSA-1 CellTiter-Glo luminescent cell viability assay. The settings on record: read-out: SJSA1 IC50; Protocol B, SJSA-1. (Cellular ATP, detected with luciferase, serves as a proxy for viable cell number.)
The target in experiment [3] is MDM2-p53 interaction (Homo sapiens (Human), UniProt Q00987). The settings on record: for inhibition at 0.03 µM: read-out: MDM2 % inhibition @0.030; for inhibition at 0.001 µM: read-out: MDM2 % inhibition @0.0010.
Sequence of MDM2-p53 interaction (Q00987 whole entry): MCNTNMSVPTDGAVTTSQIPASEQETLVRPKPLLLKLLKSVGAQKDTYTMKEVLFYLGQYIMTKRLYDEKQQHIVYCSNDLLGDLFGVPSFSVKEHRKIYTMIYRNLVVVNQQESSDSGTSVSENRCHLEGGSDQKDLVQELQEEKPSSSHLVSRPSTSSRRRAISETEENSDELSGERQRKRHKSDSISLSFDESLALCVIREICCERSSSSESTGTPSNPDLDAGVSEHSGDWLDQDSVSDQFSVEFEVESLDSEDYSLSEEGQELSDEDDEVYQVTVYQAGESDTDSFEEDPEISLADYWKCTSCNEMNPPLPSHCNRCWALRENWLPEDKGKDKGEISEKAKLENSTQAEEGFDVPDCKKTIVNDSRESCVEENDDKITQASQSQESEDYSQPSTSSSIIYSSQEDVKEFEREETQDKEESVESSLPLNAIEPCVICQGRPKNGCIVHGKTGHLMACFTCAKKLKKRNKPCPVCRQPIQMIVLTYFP

On to `CCC(O)(c1cc(F)c2c(c1)C(=O)N(Cc1ccc(C#N)cn1)[C@@]2(O[C@H]1CCOC1)c1ccc(Cl)cc1)c1ccn(C)n1` (single isomer, unassigned) [Example 335], for which the inhibition at 10 µM in experiment [1] amounted to 7%. The IC50 in experiment [2] was 2800 nM. Besides, the inhibition at 0.1 µM in experiment [3] (read-out: MDM2 % inhibition @0.10) was 51%.

For the compound `CCC(O)(c1cc(F)c2c(c1)C(=O)N(Cc1ncc(Cl)cn1)[C@@]2(O[C@H]1CCOC1)c1ccc(Cl)cc1)c1cn(C)cn1` (single isomer, unassigned) [Example 474], the inhibition at 10 µM in experiment [1] amounted to 12%. The IC50 in experiment [2] turned out to be 1300 nM. Moreover, the inhibition at 0.03 µM in experiment [3] amounted to 38%.

Turning to `CCC(O)(c1cc(F)c2c(c1)C(=O)N(Cc1ncc(Cl)cn1)[C@@]2(OCC1(CO)CC1)c1ccc(Cl)cc1)c1cn(C)cn1` (single isomer, unassigned) [Example 476], in experiment [1], the inhibition at 10 µM turned out to be 4%. Moreover, the IC50 in experiment [2] was 600 nM. In addition, the inhibition at 0.03 µM in experiment [3] was 51%.

On to `CC[C@@](O)(c1cc(F)c2c(c1)C(=O)N(Cc1ncc(C#N)cn1)[C@@]2(O[C@H]1CCOC1)c1ccc(Cl)cc1)C1(F)CCOCC1` [Example 507, 2-{[(1R)-1-(4-chlorophenyl)-7-fluoro-5-[(1R)-1-(4-fluorooxan-4-yl)-1-hydroxypropyl]-3-oxo-1-[(3S)-oxolan-3-yloxy]-2,3-dihydro-1H-isoindol-2-yl]methyl}pyrimidine-5-carbonitrile], for which the inhibition at 3 µM in experiment [1] (read-out: SN40R2 % inhibition at 3, Protocol B, SN40R2, at 3 μM) worked out at 5%. Moreover, in experiment [3] (read-out: MDM2 % inhibition @0.0030), the inhibition at 0.003 µM turned out to be 65%.

`CCC(O)(c1cc(F)c2c(c1)C(=O)N(Cc1ncc(Cl)cn1)[C@@]2(OC)c1ccc(Cl)cc1)[C@H]1CC[C@H](O)CC1` (stereo partly drawn) [Example 511, (3R)-3-(4-chlorophenyl)-2-[(5-chloropyrimidin-2-yl)methyl]-4-fluoro-6-{1-hydroxy-1-[trans-4-hydroxycyclohexyl]propyl}-3-methoxy-2,3-dihydro-1H-isoindol-1-one]: the inhibition at 10 µM in experiment [1] is 10%. Further, the inhibition at 0.001 µM in experiment [3] was found to be 72%.

Consider `CC[C@@](O)(c1cc(F)c2c(c1)C(=O)N(Cc1ncc(Cl)cn1)[C@@]2(OC)c1ccc(Cl)cc1)C1CCN(C2COC2)CC1` [Example 551, (3R)-3-(4-chlorophenyl)-2-[(5-chloropyrimidin-2-yl)methyl]-4-fluoro-6-[(1S)-1-hydroxy-1-[1-(oxetan-3-yl)piperidin-4-yl]propyl]-3-methoxy-2,3-dihydro-1H-isoindol-1-one], for which the inhibition at 10 µM in experiment [1] amounted to 13%. Besides, the inhibition at 0.001 µM in experiment [3] was 70%.

On to `CC[C@@](O)(c1cc(F)c2c(c1)C(=O)N(Cc1ncc(Cl)cn1)[C@@]2(OCC1(CO)CC1)c1ccc(Cl)cc1)C1CCN(C)CC1` [Example 556, (3R)-3-(4-chlorophenyl)-2-[(5-chloropyrimidin-2-yl)methyl]-4-fluoro-6-[(1S)-1-hydroxy-1-(1-methylpiperidin-4-yl)propyl]-3-{[1-(hydroxymethyl)cyclopropyl]methoxy}-2,3-dihydro-1H-isoindol-1-one], for which, in experiment [1], the inhibition at 10 µM was determined as 14%. In addition, the inhibition at 0.001 µM in experiment [3] worked out at 91%.

`CC[C@@](O)(c1cc(F)c2c(c1)C(=O)N(Cc1ncc(Cl)cn1)[C@@]2(O[C@H]1C[C@@H](O)C1)c1ccc(Cl)cc1)C1CCN(C)CC1` [Example 560, (3R)-3-(4-chlorophenyl)-2-[(5-chloropyrimidin-2-yl)methyl]-4-fluoro-6-[(1S)-1-hydroxy-1-(1-methylpiperidin-4-yl)propyl]-3-[cis-3-hydroxycyclobutoxy]-2,3-dihydro-1H-isoindol-1-one]: the inhibition at 10 µM in experiment [1] stood at 3%. For the same compound, the inhibition at 0.001 µM in experiment [3] amounted to 30%.

Take `CC[C@@](O)(c1cc(F)c2c(c1)C(=O)N(Cc1ncc(Cl)cc1O)[C@@]2(O[C@H]1CCOC1)c1ccc(Cl)cc1)C1CCN(C)CC1` [Example 568, 2-[(5-chloro-3-hydroxypyridin-2-yl)methyl]-3-(4-chlorophenyl)-4-fluoro-6-[(1S)-1-hydroxy-1-(1-methylpiperidin-4-yl)propyl]-3-[(3S)-oxolan-3-yloxy]-2,3-dihydro-1H-isoindol-1-one]: the inhibition at 10 µM in experiment [1] amounted to 36%. For the same compound, in experiment [3], the inhibition at 0.001 µM came out at 76%.

As a reminder, the inhibition is how much of the control response was suppressed. As usually defined, the IC50 is the point on the concentration scale where inhibition reaches its midpoint.
